Assay results taken from ChEMBL document CHEMBL5724806, “Unraveling interindividual differences and functional consequences of gut microbial metabolism of immunosuppressants” (2024).

Tests used:
Assay type in all cases: ADME
[1] = (§1) The drug is tested on Lactobacillus fermentum strain: DSM20052 for biotransformation under microaerobic condition. The drug concentrations were measured over 6 timepoints collected between 0 and 12 hours of incubation by liquid-chromatography-coupled mass spectrometry (LC–MS); set-up: dose 5 uM, timepoint 0, 1.5, 3, 6, 9, 12 hours; details: limosilactobacillus fermentum, 5 µM
[2] = (§2) The drug is tested on Bacteroides ovatus strain: ATCC 8483 for biotransformation under anaerobic condition. The drug concentrations were measured over 6 timepoints collected between 0 and 12 hours of incubation by liquid-chromatography-coupled mass spectrometry (LC–MS); set-up: dose 5 uM, timepoint 0, 1.5, 3, 6, 9, 12 hours; details: 5 µM
[3] = as §2, with “the gut metagenome community of A-09 with ENA study accession number: PRJEB31790” for “Bacteroides ovatus strain: ATCC 8483”, “7” for “6”; set-up: dose 5 uM, timepoint 0, 0.75, 1.5, 3, 6, 9, 12 hours; details: 5 µM
[4] = as §2, with “the gut metagenome community of P-04 with ENA study accession number: PRJEB31790” for “Bacteroides ovatus strain: ATCC 8483”, “7” for “6”; set-up: dose 5 uM, timepoint 0, 0.75, 1.5, 3, 6, 9, 12 hours; details: 5 µM
[5] = The drug is tested on Streptococcus anginosus strain: DSM20563 for biotransformation under microaerobic condition. The drug concentrations were measured over 6 timepoints collected between 0 and 12 hours of incubation by liquid-chromatography-coupled mass spectrometry (LC–MS); set-up: dose 5 uM, timepoint 0, 1.5, 3, 6, 9, 12 hours; details: 5 µM
[6] = (§3) The drug is tested on Bacteroides fragilis strain: DSM2151 for biotransformation under anaerobic condition. The drug concentrations were measured over 6 timepoints collected between 0 and 12 hours of incubation by liquid-chromatography-coupled mass spectrometry (LC–MS); set-up: dose 5 uM, timepoint 0, 1.5, 3, 6, 9, 12 hours; details: 5 µM
[7] = The drug is tested on Lactobacillus reuteri strain: DSM20016 for biotransformation under microaerobic condition. The drug concentrations were measured over 6 timepoints collected between 0 and 12 hours of incubation by liquid-chromatography-coupled mass spectrometry (LC–MS); set-up: dose 5 uM, timepoint 0, 1.5, 3, 6, 9, 12 hours; details: limosilactobacillus reuteri, 5 µM
[8] = The drug is tested on Clostridium scindens strain: DSM5676 for biotransformation under anaerobic condition. The drug concentrations were measured over 6 timepoints collected between 0 and 12 hours of incubation by liquid-chromatography-coupled mass spectrometry (LC–MS); set-up: dose 5 uM, timepoint 0, 1.5, 3, 6, 9, 12 hours; details: 5 µM
[9] = as §1, with “the gut metagenome community of A-05 with ENA study accession number: PRJEB31790” for “Lactobacillus fermentum strain: DSM20052”, “7” for “6”; set-up: dose 5 uM, timepoint 0, 0.75, 1.5, 3, 6, 9, 12 hours; details: 5 µM
[10] = The drug is tested on Gemella haemolysans strain: DSM107751 for biotransformation under microaerobic condition. The drug concentrations were measured over 6 timepoints collected between 0 and 12 hours of incubation by liquid-chromatography-coupled mass spectrometry (LC–MS); set-up: dose 5 uM, timepoint 0, 1.5, 3, 6, 9, 12 hours; details: 5 µM
[11] = The drug is tested on Alloscardovia omnicolens strain: DSM21503 for biotransformation under microaerobic condition. The drug concentrations were measured over 6 timepoints collected between 0 and 12 hours of incubation by liquid-chromatography-coupled mass spectrometry (LC–MS); set-up: dose 5 uM, timepoint 0, 1.5, 3, 6, 9, 12 hours; details: 5 µM
[12] = The drug is tested on Streptococcus sanguinis strain: DSM20567 for biotransformation under microaerobic condition. The drug concentrations were measured over 6 timepoints collected between 0 and 12 hours of incubation by liquid-chromatography-coupled mass spectrometry (LC–MS); set-up: dose 5 uM, timepoint 0, 1.5, 3, 6, 9, 12 hours; details: 5 µM
[13] = as §3, with “the gut metagenome community of A-08 with ENA study accession number: PRJEB31790” for “Bacteroides fragilis strain: DSM2151”, “7” for “6”; set-up: dose 5 uM, timepoint 0, 0.75, 1.5, 3, 6, 9, 12 hours; details: 5 µM
[14] = The drug is tested on Lactobacillus fermentum strain: DSM20052 for biotransformation under anaerobic condition. The drug concentrations were measured over 6 timepoints collected between 0 and 12 hours of incubation by liquid-chromatography-coupled mass spectrometry (LC–MS); set-up: dose 5 uM, timepoint 0, 1.5, 3, 6, 9, 12 hours; details: limosilactobacillus fermentum, 5 µM
[15] = The drug is tested on Capnocytophaga ochracea strain: DSM7271 for biotransformation under microaerobic condition. The drug concentrations were measured over 6 timepoints collected between 0 and 12 hours of incubation by liquid-chromatography-coupled mass spectrometry (LC–MS); set-up: dose 5 uM, timepoint 0, 1.5, 3, 6, 9, 12 hours; details: 5 µM
[16] = as §1, with “the gut metagenome community of P-02 with ENA study accession number: PRJEB31790” for “Lactobacillus fermentum strain: DSM20052”, “7” for “6”; set-up: dose 5 uM, timepoint 0, 0.75, 1.5, 3, 6, 9, 12 hours; details: 5 µM
[17] = as §1, with “the gut metagenome community of A-03 with ENA study accession number: PRJEB31790” for “Lactobacillus fermentum strain: DSM20052”, “7” for “6”; set-up: dose 5 uM, timepoint 0, 0.75, 1.5, 3, 6, 9, 12 hours; details: 5 µM
[18] = as §1, with “the gut metagenome community of A-06 with ENA study accession number: PRJEB31790” for “Lactobacillus fermentum strain: DSM20052”, “7” for “6”; set-up: dose 5 uM, timepoint 0, 0.75, 1.5, 3, 6, 9, 12 hours; details: 5 µM
[19] = The drug is tested on Enterococcus faecalis strain: ATCC29212 for biotransformation under microaerobic condition. The drug concentrations were measured over 6 timepoints collected between 0 and 12 hours of incubation by liquid-chromatography-coupled mass spectrometry (LC–MS); set-up: dose 5 uM, timepoint 0, 1.5, 3, 6, 9, 12 hours; details: 5 µM
[20] = as §3, with “the gut metagenome community of A-07 with ENA study accession number: PRJEB31790” for “Bacteroides fragilis strain: DSM2151”, “7” for “6”; set-up: dose 5 uM, timepoint 0, 0.75, 1.5, 3, 6, 9, 12 hours; details: 5 µM
[21] = as §1, with “the gut metagenome community of A-01 with ENA study accession number: PRJEB31790” for “Lactobacillus fermentum strain: DSM20052”, “7” for “6”; set-up: dose 5 uM, timepoint 0, 0.75, 1.5, 3, 6, 9, 12 hours; details: 5 µM
[22] = The drug is tested on Collinsella aerofaciens strain: DSM3979 for biotransformation under anaerobic condition. The drug concentrations were measured over 6 timepoints collected between 0 and 12 hours of incubation by liquid-chromatography-coupled mass spectrometry (LC–MS); set-up: dose 5 uM, timepoint 0, 1.5, 3, 6, 9, 12 hours; details: 5 µM
[23] = The drug is tested on Actinomyces naeslundi strain: DSM43013 for biotransformation under microaerobic condition. The drug concentrations were measured over 6 timepoints collected between 0 and 12 hours of incubation by liquid-chromatography-coupled mass spectrometry (LC–MS); set-up: dose 5 uM, timepoint 0, 1.5, 3, 6, 9, 12 hours; details: actinomyces naeslundii, 5 µM
[24] = The drug is tested on Lactobacillus ruminis strain: ATCC25644 for biotransformation under anaerobic condition. The drug concentrations were measured over 6 timepoints collected between 0 and 12 hours of incubation by liquid-chromatography-coupled mass spectrometry (LC–MS); set-up: dose 5 uM, timepoint 0, 1.5, 3, 6, 9, 12 hours; details: ligilactobacillus ruminis, 5 µM
[25] = as §3, with “the gut metagenome community of A-01 with ENA study accession number: PRJEB31790” for “Bacteroides fragilis strain: DSM2151”, “7” for “6”; set-up: dose 5 uM, timepoint 0, 0.75, 1.5, 3, 6, 9, 12 hours; details: 5 µM
[26] = The drug is tested on Blautia hansenii strain: DSM20583 for biotransformation under anaerobic condition. The drug concentrations were measured over 6 timepoints collected between 0 and 12 hours of incubation by liquid-chromatography-coupled mass spectrometry (LC–MS); set-up: dose 5 uM, timepoint 0, 1.5, 3, 6, 9, 12 hours; details: 5 µM
[27] = The drug is tested on Eubacterium rectale strain: DSM17629 for biotransformation under anaerobic condition. The drug concentrations were measured over 6 timepoints collected between 0 and 12 hours of incubation by liquid-chromatography-coupled mass spectrometry (LC–MS); set-up: dose 5 uM, timepoint 0, 1.5, 3, 6, 9, 12 hours; details: agathobacter rectalis, 5 µM
[28] = as §3, with “the gut metagenome community of A-05 with ENA study accession number: PRJEB31790” for “Bacteroides fragilis strain: DSM2151”, “7” for “6”; set-up: dose 5 uM, timepoint 0, 0.75, 1.5, 3, 6, 9, 12 hours; details: 5 µM
[29] = The drug is tested on Bacteroides uniformis strain: DSM6597 for biotransformation under anaerobic condition. The drug concentrations were measured over 6 timepoints collected between 0 and 12 hours of incubation by liquid-chromatography-coupled mass spectrometry (LC–MS); set-up: dose 5 uM, timepoint 0, 1.5, 3, 6, 9, 12 hours; details: 5 µM
[30] = The drug is tested on Bacteroides caccae strain: DSM19024 for biotransformation under anaerobic condition. The drug concentrations were measured over 6 timepoints collected between 0 and 12 hours of incubation by liquid-chromatography-coupled mass spectrometry (LC–MS); set-up: dose 5 uM, timepoint 0, 1.5, 3, 6, 9, 12 hours; details: 5 µM

Compound | Bacterial Biotransformation [1] | Bacterial Biotransformation [2] | Bacterial Biotransformation [3] | Bacterial Biotransformation [4] | Bacterial Biotransformation [5] | Bacterial Biotransformation [6] | Bacterial Biotransformation [7] | Bacterial Biotransformation [9] | Bacterial Biotransformation [10] | Bacterial Biotransformation [11] | Bacterial Biotransformation [12] | Bacterial Biotransformation [13] | Bacterial Biotransformation [14] | Bacterial Biotransformation [15] | Bacterial Biotransformation [16] | Bacterial Biotransformation [17] | Bacterial Biotransformation [18] | Bacterial Biotransformation [19] | Bacterial Biotransformation [20] | Bacterial Biotransformation [21] | further results
CCOc1nc2cccc(C(=O)O)c2n1Cc1ccc(-c2ccccc2-c2nnn[nH]2)cc1 | Compound NOT metabolized | Compound NOT metabolized | Compound NOT metabolized | Compound NOT metabolized | Compound NOT metabolized | Compound NOT metabolized | Compound NOT metabolized | Compound NOT metabolized | Compound NOT metabolized | Compound NOT metabolized | Compound NOT metabolized | Compound NOT metabolized | Compound metabolized | Compound NOT metabolized | Compound NOT metabolized | Compound NOT metabolized | Compound NOT metabolized | Compound NOT metabolized | Compound NOT metabolized | Compound NOT metabolized | Bacterial Biotransformation [8]: Compound NOT metabolized; Bacterial Biotransformation [22]: Compound NOT metabolized; Bacterial Biotransformation [23]: Compound NOT metabolized; Bacterial Biotransformation [24]: Compound NOT metabolized; Bacterial Biotransformation [25]: Compound NOT metabolized; Bacterial Biotransformation [26]: Compound NOT metabolized; Bacterial Biotransformation [27]: Compound NOT metabolized; Bacterial Biotransformation [28]: Compound NOT metabolized; Bacterial Biotransformation [29]: Compound NOT metabolized; Bacterial Biotransformation [30]: Compound NOT metabolized
CCOC(=O)C1=C(COCCN)NC(C)=C(C(=O)OC)C1c1ccccc1Cl (centres undefined) [AMLODIPINE] | Compound NOT metabolized | Compound NOT metabolized | Compound NOT metabolized | Compound NOT metabolized | Compound metabolized | Compound NOT metabolized | Compound NOT metabolized | Compound NOT metabolized | Compound NOT metabolized | Compound NOT metabolized | Compound NOT metabolized | Compound NOT metabolized | Compound NOT metabolized | Compound NOT metabolized | Compound NOT metabolized | Compound NOT metabolized | Compound NOT metabolized | Compound metabolized | Compound NOT metabolized | Compound NOT metabolized | Bacterial Biotransformation [22]: Compound NOT metabolized; Bacterial Biotransformation [23]: Compound NOT metabolized; Bacterial Biotransformation [24]: Compound NOT metabolized; Bacterial Biotransformation [25]: Compound NOT metabolized; Bacterial Biotransformation [26]: Compound NOT metabolized; Bacterial Biotransformation [27]: Compound NOT metabolized; Bacterial Biotransformation [28]: Compound NOT metabolized; Bacterial Biotransformation [29]: Compound NOT metabolized; Bacterial Biotransformation [30]: Compound NOT metabolized
